Tests used:
[1] = Assay 5: rat pharmacokinetics; assay type: in vivo, male Sprague Dawley rats; conditions: male, Sprague Dawley
Protocol: Assay 5: Rat Pharmacokinetics Assay The objective of this study was to assess the pharmacokinetics of compound (I) in plasma following single oral (PO, n=3) or intravenous (IV, n=2) administration to male Sprague Dawley rats. Three male Sprague Dawley rats were administered a single IV dose of compound (I) (1.0 mg/kg in 5% DMSO+20 mM Citrate buffer pH4) via a jugular vein catheter or a single PO dose of 5 mg/kg via oral gavage (5.0 mg/kg in 1% HPMC with 0.1% Tween80). At 0.25, 0.5, 1, 2, 4, 6, and 24 hours after dose administration blood samples were drawn via jugular vein catheter into EDTA tubes and maintained chilled on ice prior to centrifugation (12,000 rpm, 4 min, 4° C.). Aliquots of plasma were transferred to cluster tubes and stored frozen (−80° C.) prior to bioanalysis. Plasma samples were vortexed prior to transferring a 50 μL aliquot of sample to a 96-well plate and extracted with 200 μL acetonitrile containing an internal standard. Following extraction, samples were centrifuged for 10 min at 3700 RPM (2809×g). The supernatant was transferred to a new 96-well plate and then diluted in 0.2% formic acid in water (3-fold dilution). For all samples, 10 μL was injected onto a Waters Xbridge (C18 30×2.1 mm) column with a flow rate of 0.80 mL/min. Mobile phase A consisted of 0.2% formic acid in water and mobile phase B 0.2% formic acid in acetonitrile. Plasma levels of compound (I) were determined by LC-MS-MS analysis. Standard PK parameters were determined using Phoenix WinNonlin, (Certara Inc.).

[2] = tested on: IL-31-induced production of pSTAT3 in mouse skin; assay: Assay 9: in vivo IL-31-pSTAT3 JAK target engagement in mice; design: species or system Balb/c mice; conditions: topical ointment 25 μl/cm^2, 30 minutes before intradermal IL-31, biopsy one hour after IL-31
Excerpt: Assay 9: In Vivo IL-31-pSTAT3 JAK Target Engagement Assay in Mice
An in vivo model of IL-31-induced production of phosphorylated signal transducer and activator of transcription 3 (pSTAT3) in mice was used to assess local target engagement on mouse skin.
The JAK/STAT (janus kinase/signal transducer and activator of transcription) signaling pathway is a key element in the communication between immune cells and is mainly activated through cytokine receptors. Binding of cytokine IL-31 leads to the activation and phosphorylation of JAK1/JAK2 tyrosine kinases which in turn leads to the phosphorylation of STAT3 (pSTAT3). The activated STAT then translocates into the nucleus and directly regulates the transcription of cytokine-sensitive genes. In these studies, Balb/c mice were dosed with an ointment formulation of compound (I). Ointment vehicle (Table 9) or compound (I) formulated in the ointment vehicle was applied topically to shaved skin (25 μl/cm^2) 30 minutes before the intradermal injection (50 μl/1×1 cm2 site) of IL-31 (1 μg/ml) at a 1×1 cm^2 shaved area of skin on the back between the ears. One hour after IL-31, skin biopsies were collected. The tissue samples were flash frozen and analyzed for pSTAT3 by ELISA and compound concentration. Compound (I) inhibited pSTAT3 production by 80% and the skin tissue concentration of compound (I) was 62 μM.

JAK1 = target: T1, JAK1 (Homo sapiens, UniProt P23458); assay: Biochemical JAK kinase assay (LanthaScreen), JAK1; conditions: converted from pIC50 by Cheng-Prusoff; ATP at Km 25 μM; read-out: JAK 1 (pKi) (converted)
T1 construct: GST; purchased Life Technologies
T1 sequence (P23458 whole entry): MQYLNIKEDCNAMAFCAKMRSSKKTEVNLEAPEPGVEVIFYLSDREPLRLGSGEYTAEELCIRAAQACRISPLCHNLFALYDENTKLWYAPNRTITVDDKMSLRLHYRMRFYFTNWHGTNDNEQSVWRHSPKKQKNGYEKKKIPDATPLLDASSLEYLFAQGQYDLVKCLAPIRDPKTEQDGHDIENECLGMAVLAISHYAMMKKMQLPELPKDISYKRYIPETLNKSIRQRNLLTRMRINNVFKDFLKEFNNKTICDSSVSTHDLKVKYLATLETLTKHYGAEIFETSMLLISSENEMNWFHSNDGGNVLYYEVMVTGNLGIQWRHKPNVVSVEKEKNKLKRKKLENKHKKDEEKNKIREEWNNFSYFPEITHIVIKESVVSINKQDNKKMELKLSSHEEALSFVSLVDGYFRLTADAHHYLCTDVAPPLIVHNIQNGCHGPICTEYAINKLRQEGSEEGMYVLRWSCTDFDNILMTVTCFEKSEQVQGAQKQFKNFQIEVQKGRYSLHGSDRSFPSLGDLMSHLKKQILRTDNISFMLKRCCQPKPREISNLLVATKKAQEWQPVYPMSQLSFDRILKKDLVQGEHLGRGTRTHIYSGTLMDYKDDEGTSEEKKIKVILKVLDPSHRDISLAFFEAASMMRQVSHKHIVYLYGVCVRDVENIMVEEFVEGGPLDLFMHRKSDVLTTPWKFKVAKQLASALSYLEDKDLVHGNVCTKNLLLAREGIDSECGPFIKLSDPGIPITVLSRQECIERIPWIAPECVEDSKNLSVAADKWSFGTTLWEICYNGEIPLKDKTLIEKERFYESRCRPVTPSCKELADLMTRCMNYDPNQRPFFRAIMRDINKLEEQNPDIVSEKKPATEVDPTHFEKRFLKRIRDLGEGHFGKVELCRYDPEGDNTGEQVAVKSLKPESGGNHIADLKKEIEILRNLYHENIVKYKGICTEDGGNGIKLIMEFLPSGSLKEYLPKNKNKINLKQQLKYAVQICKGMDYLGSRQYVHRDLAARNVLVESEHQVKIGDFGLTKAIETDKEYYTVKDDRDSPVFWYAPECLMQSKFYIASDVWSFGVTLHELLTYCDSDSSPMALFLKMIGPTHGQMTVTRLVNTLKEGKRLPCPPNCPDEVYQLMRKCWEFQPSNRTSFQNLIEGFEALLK
Protocol: Assay 1: Biochemical JAK and Tyk2 Kinase Assays A panel of four LanthaScreen JAK biochemical assays (JAK1, 2, 3 and Tyk2) were carried in a common kinase reaction buffer (50 mM HEPES, pH 7.5, 0.01% Brij-35, 10 mM MgCl2, and 1 mM EGTA). Recombinant GST-tagged JAK enzymes and a GFP-tagged STAT1 peptide substrate were obtained from Life Technologies. Serially or discretely diluted compounds were pre-incubated with each of the four JAK enzymes and the substrate in white 384-well microplates (Corning) at ambient temperature for 1 h. ATP was subsequently added to initiate the kinase reactions in 10 μL total volume, with 1% DMSO. […] The plates were allowed to incubate at ambient temperature for 1 h before being read on the EnVision reader (Perkin Elmer). Emission ratio signals (520 nm/495 nm) were recorded and utilized to calculate the percent inhibition values based on DMSO and background controls. For dose-response analysis, percent inhibition data were plotted vs. compound concentrations, and IC50 values were determined from a 4-parameter robust fit model with the Prism software (GraphPad Software). Results were expressed as pIC50 (negative logarithm of IC50) and subsequently converted to pKi (negative logarithm of dissociation constant, Ki) using the Cheng-Prusoff equation.

[3] = Assay 8: human skin permeability assay (MedFlux-HT flow-through diffusion cell); assay type: in vitro ADME; conditions: 0.5% Ointment
Protocol: Assay 8: Human Skin Permeability Assay The objective of this experiment was to assess the percutaneous absorption of test compounds through human skin following topical application. The model uses excised human skin mounted in specially designed diffusion chambers (static or flow-through) that allow the skin to be maintained at a temperature and humidity that match real use conditions. The formulation was applied to the surface of the skin and the penetration of the drug is measured by monitoring its rate of appearance in the receptor solution flowing underneath the skin samples. This in vitro system allows carefully control of many of the potential variables involved in topical application, such as dosing volumes, humidity, temperature, drug stability, and skin thickness. […] This system was developed to specifically minimize the dosing area during in vitro experiments, thus allowing more dosing replications within the limited surface area of ex vivo human skin. The diffusion cells were placed in cell warming supports and heated using a circulating water bath in order to maintain the skin surface temperature at approx. 32° C. The cells were connected to multi-channel peristaltic pumps and maintained at a flow-rate of approximately 10 μL/min (600 μL/hr) for a continuous flow of receiver fluid directly under the skin. Following continuous sampling over 24 h, samples were assayed for test compound levels by LC-MS/MS. The test compound was detected in receiver fluid from […] following application of test ointment formulation (n=5). The ointment used is disclosed in Assay 7. The receiver fluid was PBS with 0.1% Brij.

CCS(=O)(=O)N1[C@@H]2CCC[C@H]1C[C@H](N(C)c1nc(CO)c(F)c(Nc3cc(C)[nH]n3)n1)C2 [Compound (I), (2-(((1R,3s,5S)-9-(ethylsulfonyl)-9-azabicyclo[3.3.1]nonan-3-yl)(methyl)amino)-5-fluoro-6-((5-methyl-1H-pyrazol-3-yl)amino)pyrimidin-4-yl)methanol]
clearance ([1]; plasma, rat, IV (1 mg/kg)): 59 mL/min/kg
Vd ([1]; plasma, rat, IV (1 mg/kg), read-out: Vdss): 1.1 L/kg
bioavailability ([1]; plasma, rat, PO (5 mg/kg)): 7.7%
AUC(0-t) ([1]; rat plasma, IV (1 mg/kg)): 291 ng·h/mL
Cmax ([1]; rat plasma, IV (1 mg/kg)): 907 ng/mL
half-life ([1]; rat plasma, IV (1 mg/kg), read-out: T½ (converted)): 80.4 min
AUC(0-t) ([1]; rat plasma, PO (5 mg/kg)): 112 ng·h/mL
Cmax ([1]; rat plasma, PO (5 mg/kg)): 77 ng/mL
inhibition of IL-31-induced pSTAT3 production [2]: 80%
Ki (JAK1): 0.0631 nM
permeability in human skin assay (in words) [3]: good permeability
MedFlux Permeability, flux permeating through 1 cm2 of human skin (Mean) ([3]; n=5, receiver fluid PBS with 0.1% Brij): 39.1 ng/cm2/sec
permeability in human skin assay (in words) ([3]; listed as compound (I)): adequate permeability
